Reference: patent publication US20230078764A1 (Yumanity Therapeutics, Inc., priority 2019, published 2023)

Tests used:
[1] = biological target: T1, human SCD5 (Homo sapiens, UniProt Q86SK9); assay: Growth inhibition of yeast strain expressing human SCD5 as sole desaturase (OLE1 deleted), OD600 readout; type: cell-based; conditions: yeast strain expressing human SCD5 as sole desaturase; growth (OD600) after 40 h at 30° C.; read-out: SCD5 IC50
T1 construct: expressed in transfected cells; host or cells: yeast strain with OLE1 deleted, plasmid-borne human SCD5 (selected in SD-Ura)
T1 sequence (Q86SK9 1-330): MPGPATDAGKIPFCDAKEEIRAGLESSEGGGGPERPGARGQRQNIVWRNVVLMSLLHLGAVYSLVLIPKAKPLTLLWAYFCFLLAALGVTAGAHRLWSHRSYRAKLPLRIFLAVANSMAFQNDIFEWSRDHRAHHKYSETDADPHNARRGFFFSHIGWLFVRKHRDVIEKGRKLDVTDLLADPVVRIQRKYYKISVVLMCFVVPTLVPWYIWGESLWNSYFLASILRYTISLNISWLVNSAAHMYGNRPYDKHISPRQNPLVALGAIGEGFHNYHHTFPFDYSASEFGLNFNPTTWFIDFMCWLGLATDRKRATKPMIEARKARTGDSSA

[2] = biological target: T2, human SCD1 (Homo sapiens, UniProt O00767); assay: Growth inhibition of yeast strain expressing human SCD1 as sole desaturase (OLE1 deleted), OD600 readout; type: cell-based; conditions: yeast strain expressing human SCD1 as sole desaturase; growth (OD600) after 40 h at 30° C.; read-out: SCD1 IC50
T2 construct: expressed in transfected cells; host or cells: yeast strain with OLE1 deleted, plasmid-borne human SCD1 (selected in SD-Ura)
T2 sequence (O00767 1-359): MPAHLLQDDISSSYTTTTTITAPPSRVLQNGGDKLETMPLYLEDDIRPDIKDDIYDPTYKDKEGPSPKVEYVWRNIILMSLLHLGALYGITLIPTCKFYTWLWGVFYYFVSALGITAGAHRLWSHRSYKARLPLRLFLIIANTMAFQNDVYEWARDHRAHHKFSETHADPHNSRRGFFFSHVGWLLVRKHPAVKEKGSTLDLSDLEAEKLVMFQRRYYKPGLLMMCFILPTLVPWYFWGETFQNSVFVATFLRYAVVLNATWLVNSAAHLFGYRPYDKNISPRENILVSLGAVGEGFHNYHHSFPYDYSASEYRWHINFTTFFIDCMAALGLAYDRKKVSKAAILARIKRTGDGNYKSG

Compound	IC50 [1]	IC50 [2]
CN1N=C(C(=O)Nc2ncc(Cc3ccc4ccccc4n3)s2)CCC1=O [Compound 390]	> 45000 nM	> 45000 nM
Cc1nccc(C(=O)Nc2ccc(Cc3cc(F)cc(F)c3)cn2)n1 [Compound 242]	10 nM	50 nM
CCn1nc(C(=O)Nc2ccc(Cc3cccc(F)c3)nn2)ccc1=O [Compound 199, 1-ethyl-N-(6-(3-fluorobenzyl)pyridazin-3-yl)-6-oxo-1,6-dihydropyridazine-3-carboxamide]	5800 nM	> 45000 nM
O=C(Nc1ccc(Cc2cc(F)cc(F)c2)cn1)c1cnc(Cl)c(Cl)c1 [Compound 601]	34 nM	> 45000 nM
O=C(Nc1ccc(Cc2cccc(F)c2)cn1)c1cncc(CO)c1 [Compound 481]	27 nM	120 nM
CN1N=C(C(=O)Nc2ccc(Cc3cncc(Cl)c3)cn2)CCC1=O [Compound 274]	760 nM	> 45000 nM
Cc1ncc(C(=O)Nc2ccc(Cc3cc(F)cc(F)c3)cn2)cn1 [Compound 581]	62 nM	680 nM
Cc1ccc(Cc2ccc(NC(=O)c3ccc(=O)n(C)c3)nc2)cn1 [Compound 449]	> 45000 nM	> 45000 nM
N#Cc1cnc(C(=O)Nc2ccc(Cc3cccc(F)c3)cn2)nc1 [Compound 500]	10 nM	> 45000 nM
CCCn1nc(C(=O)Nc2ccc(Cc3cccc(F)c3)cn2)ccc1=O [Compound 71, N-(5-(3-fluorobenzyl)pyridin-2-yl)-6-oxo-1-propyl-1,6-dihydropyridazine-3-carboxamide]	3910 nM	> 45000 nM
COC(c1cccc(F)c1)c1cnc(NC(=O)C2=NN(C)C(=O)CC2)s1 (stereo not shown) [Compound 204, N-(5-((3-fluorophenyl)(methoxy)methyl)thiazol-2-yl)-1-methyl-6-oxo-1,4,5,6-tetrahydropyridazine-3-carboxamide]	27900 nM	> 45000 nM
CCn1ccc(C(=O)Nc2ccc(Cc3ccc(F)cc3)cn2)n1 [Compound 102, 1-ethyl-N-(5-(4-fluorobenzyl)pyridin-2-yl)-1H-pyrazole-3-carboxamide]	80 nM	10300 nM
CN1N=C(C(=O)Nc2ccc(CCc3cccc(Cl)c3)cn2)CCC1=O [Compound 296]	860 nM	> 45000 nM
Cn1cc(C(=O)Nc2ccc(Nc3cccc(Cl)c3)cn2)ccc1=O [Compound 342]	20900 nM	> 45000 nM
Cn1nc(C(=O)Nc2ccc(CCOc3cccc(F)c3)cn2)ccc1=O [Compound 360]	6590 nM	32600 nM
Cn1nc(C(=O)Nc2ccc(Oc3cccc(Cl)c3)cn2)ccc1=O [Compound 163, N-[5-(3-chlorophenoxy)pyridin-2-yl]-1-methyl-6-oxo-1,6-dihydropyridazine-3-carboxamide]	240 nM	> 45000 nM
Cn1nc(C(=O)Nc2ccc(Cc3cc(F)cc(F)c3Cl)cn2)ccc1=O [Compound 680]	25 nM	2700 nM
Cn1cc(C(=O)Nc2ccc(Cc3cccc(Cl)c3)cn2)cnc1=O [Compound 652]	86 nM	1900 nM
Cc1nccc(NC(=O)c2ccc(Cc3cccc(F)c3)cn2)n1 [Compound 115, 5-(3-Fluorobenzyl)-N-(2-methylpyrimidin-4-yl)picolinamide]	50 nM	> 45000 nM
Cn1ccc(C(=O)Nc2ccc(Cc3cc(F)cc(F)c3)cn2)cc1=O [Compound 533]	10 nM	220 nM
Cn1cc(NC(=O)c2ccc(Cc3ccc(F)cc3)cn2)ccc1=O [Compound 496]	10 nM	222 nM
O=C(Nc1ccc(Cc2cccc(F)c2)cn1)c1ncc(Br)cn1 [Compound 490]	2200 nM	> 45000 nM
CN1N=C(C(=O)Nc2ccc(Cc3ccc(Cl)s3)nn2)CCC1=O [Compound 247]	2020 nM	> 45000 nM
Cn1nc(C(=O)Nc2ccc(Cc3ccc(F)c(F)c3Cl)cn2)ccc1=O [Compound 571]	10 nM	520 nM
Cn1cc(-c2cnc(NC(=O)Cc3cccc(F)c3)cn2)ccc1=O [Compound 359]	3270 nM	18700 nM
Cn1ccc(C(=O)Nc2ccc(Cc3ccc(F)c(F)c3)cn2)n1 [Compound 92, N-(5-(3,4-difluorobenzyl)pyridin-2-yl)-1-methyl-1H-pyrazole-3-carboxamide]	20 nM	110 nM
Cn1cc(C(=O)Nc2nnc(Cc3cc(F)cc(Cl)c3)s2)ccc1=O [Compound 431]	> 45000 nM	1070 nM

Compound	IC50 [1]	IC50 [2]
C=CCCc1ccc(NC(=O)C2=NN(C)C(=O)CC2)nc1 [Compound 444]	> 45000 nM	> 45000 nM
O=C(Nc1ncc(Cc2cccc(F)c2)s1)C1=NN(CCF)C(=O)CC1 [Compound 386]	> 45000 nM	> 45000 nM
N#Cc1ccc(C(=O)Nc2ccc(Cc3ccc(F)c(C#N)c3)cn2)nc1 [Compound 534]	200 nM	6000 nM
CN1N=C(C(=O)Oc2ccc(NCc3cc(F)cc(C#N)c3)nc2)CCC1=O [Compound 269]	30 nM	> 45000 nM
Cc1ccc(C(=O)Nc2ccc(Cc3cccc(F)c3)cn2)nn1 [Compound 145, N-(5-(3-fluorobenzyl)pyridin-2-yl)-6-methylpyridazine-3-carboxamide]	100 nM	1710 nM
O=C(Nc1ccc(COc2ccc(F)c(Cl)c2)cn1)c1ccc(=O)n(C2CC2)c1 [Compound 365]	4000 nM	25800 nM
CC(O)c1ccc(C(=O)Nc2ccc(Cc3cccc(Cl)c3)cn2)cn1 (stereo not shown) [Compound 368]	240 nM	1370 nM
Cn1nc(C(=O)Nc2ccc(Cc3cccc(F)c3F)cn2)ccc1=O [Compound 551]	1200 nM	> 45000 nM
COc1cc(Cc2cccc(Cl)c2)cnc1NC(=O)C1=NN(C)C(=O)CC1 [Compound 387]	> 45000 nM	> 45000 nM
O=C(Nc1ccc(Cc2cccc(Cl)c2)cn1)c1cnc(Cl)c(F)c1 [Compound 319]	460 nM	> 45000 nM
CN1N=C(C(=O)Nc2ccc(Cc3cccc(C(F)(F)F)n3)cn2)CCC1=O [Compound 445]	> 45000 nM	> 45000 nM
Cn1cccc(C(=O)Nc2ccc(Cc3cc(F)cc(F)c3)cn2)c1=O [Compound 329]	10 nM	100 nM
CN1N=C(C(=O)Nc2ccc(Cc3cccc(F)c3)nc2)CCC1=O [Compound 401]	> 45000 nM	> 45000 nM
O=C(Nc1ccc(Cc2cccc(Cl)c2)cn1)N1CCC2(CC1)COC2 [Compound 393]	> 45000 nM	> 45000 nM
Cn1ncc2cc(-c3ccc(Cc4cccc(F)c4)cn3)ccc21 [Compound 153, 5-(5-(3-fluorobenzyl)pyridin-2-yl)-1-methyl-1H-indazole]	7600 nM	5300 nM
Cn1nc(C(=O)Nc2ccc(Cc3cc(F)cc(C(F)F)c3)cn2)ccc1=O [Compound 562]	10 nM	1000 nM
Cn1nc(C(=O)Nc2ccc(Cc3ccc(C(F)(F)F)cc3)cn2)ccc1=O [Example 39, 1-methyl-6-oxo-N-(5-(4-(trifluoromethyl)benzyl)pyridin-2-yl)-1,6-dihydropyridazine-3-carboxamide]	920 nM	> 45000 nM
CCn1nc(C(=O)Nc2ccc(Cc3cccc(Cl)c3)cn2)ccc1=O [Compound 67, N-(5-(3-chlorobenzyl)pyridin-2-yl)-1-ethyl-6-oxo-1,6-dihydropyridazine-3-carboxamide]	120 nM	440 nM
CN1N=C(C(=O)Nc2nc(Cc3ccc(F)cc3)cs2)CCC1=O [Compound 378]	> 45000 nM	> 45000 nM
Cn1ccc(C(=O)Nc2ccc(Cc3cc(F)ccc3F)cn2)cc1=O [Compound 630]	320 nM	1100 nM
COc1nccc(C(=O)Nc2ccc(Cc3cccc(F)c3)cn2)n1 [Compound 364]	20 nM	710 nM
COc1ccc(Cn2c(C(=O)Nc3ccc(Cc4cccc(Cl)c4)cn3)cc(=O)n2C)cc1 [Compound 456]	> 45000 nM	> 45000 nM
CC1(C)CN(C(=O)c2ccc(Cc3cccc(F)c3)cn2)CCO1 [Compound 339]	17700 nM	> 45000 nM
Cc1nnc(C(=O)Nc2ccc(Cc3cccc(Cl)c3)cn2)o1 [Compound 104, N-(5-(3-chlorobenzyl)pyridin-2-yl)-5-methyl-1,3,4-oxadiazole-2-carboxamide]	40 nM	40 nM
C#Cn1nc(C(=O)Nc2ccc(Cc3cccc(Cl)c3)cn2)ccc1=O [Compound 521]	5300 nM	2500 nM
Cn1cc(C(=O)Nc2ccc(COc3cccc(Cl)c3)nn2)ccc1=O [Compound 259]	570 nM	5370 nM
